“And” between values parts separate entries of the source, which are not always exact repeats. Equal values may be shown once.
Columns and labels:
BT-549 [1] = assay: Clonogenicity (recovery) assay, 72 h post-treatment, SRB; conditions: BT-549, 10, 2, and 0.4 µg/mL, in words
BT-549 [2] = tested on: BT-549
in vitro = conditions: human, Cytotoxic activity IC50, MCF-10A, 72 h, mean of three independent experiments ± S.D.
MCF-7 [3] = tested on: MCF-7
MCF-7 [4] = assay: Clonogenicity (recovery) assay, 72 h post-treatment, SRB
MCF-10A [5] = tested on: MCF-10A
MDA-MB-231 [6] = tested on: MDA-MB-231
MDA-MB-231 [7] = assay: Clonogenicity (recovery) assay, 72 h post-treatment, SRB; conditions: MDA-MB-231, 10, 2, and 0.4 µg/mL, in words
Lewis lung carcinoma = tested on: Lewis lung carcinoma; parameters: method as in ref 31 = [31]; 31. NCBI, National Center for Biotechnology Information PubChem BioAssay Database 2007 AID=192, 256 and 270 Available online: https://pubchem.ncbi.nlm.nih.gov/bioassay/192, 256, and 270 (accessed on 3); conditions: subcutaneous inoculation, in words; cited from earlier work
MCF-10A [8] = assay: Clonogenicity (recovery) assay, 72 h post-treatment, SRB; conditions: MCF-10A, the four tested concentrations, in words

## COc1ccc([C@@H]2c3cc4c(cc3C[C@H]3COC(=O)[C@@H]32)OCO4)cc1OC [Compound 3, 5′-demethoxydeoxypodophyllotoxin]
BT-549 [1]
  effect on proliferation and recovery after treatment: cytotoxicity with a lack of recovery
BT-549 [2]; BT-549, relative to POD
  Potency compared to control POD: 0.252
BT-549 [2]; BT-549, relative to VP-16
  Potency compared to control VP-16: 7.6 and 7.661
BT-549 [2]; BT-549 vs MCF-10A, in words
  selectivity according to the selectivity criteria (SI ≥ 10 selective): non-selective compound
BT-549 [2]; read-out: Cytotoxic activity IC50, BT-549, 72 h, mean of three independent experiments ± S.D.
  IC50: 21 ± 3 nM
In vitro
  IC50 at 72 h: 90 ± 9 nM
MCF-7 [3]; IC50 MCF-10A / IC50 MCF-7
  Selectivity index: 2.33
MCF-7 [3]; MCF-7, 0.08 µg/mL, 72 h
  percentage of survival: 55% ± 9.9%
MCF-7 [3]; MCF-7, relative to POD
  Potency compared to control POD: 0.449
MCF-7 [3]; MCF-7, relative to VP-16
  Potency compared to control VP-16: 3.124
MCF-7 [3]; read-out: Cytotoxic activity IC50, MCF-7, 72 h, mean of three independent experiments ± S.D.
  IC50: 40 ± 11 nM
MCF-7 [4]; MCF-7, 0.08 µg/mL, 72 h post-treatment
  percentage of recovery: 111% ± 13%
MCF-7 [4]; MCF-7, 10, 2, and 0.4 µg/mL, in words
  effect on proliferation and recovery after treatment: cytotoxicity with a lack of recovery
MCF-10A [5]; read-out: Cytotoxic activity IC50, 72 h, mean of three independent experiments ± S.D.
  IC50: 92 ± 9 nM
MCF-10A [5]; relative to POD
  Potency compared to control POD: 0.214
MCF-10A [5]; relative to VP-16
  Potency compared to control VP-16: 0.507
MDA-MB-231 [6]; IC50 MCF-10A / IC50 MDA-MB-231
  Selectivity index: 0.64
MDA-MB-231 [6]; MDA-MB-231, relative to POD
  Potency compared to control POD: 0.168
MDA-MB-231 [6]; MDA-MB-231, relative to VP-16
  Potency compared to control VP-16: 0.268
MDA-MB-231 [6]; read-out: Cytotoxic activity IC50, MDA-MB-231, 72 h, mean of three independent experiments ± S.D.
  IC50: 145 ± 45 nM
MDA-MB-231 [7]
  effect on proliferation and recovery after treatment: cytotoxicity with a lack of recovery
Lewis lung carcinoma
  biological activity in Lewis lung carcinoma model: did not show biological activities
MCF-10A [8]
  effect on proliferation in the cytotoxicity and clonogenicity assays: completely inhibited proliferation

Source: PMC6274026 (Molecules, 2016)
